# Assay results from patent US9120749B2, “Quinoline derivatives and MELK inhibitors containing the same” (ONCOTHERAPY SCIENCE, INC., priority 2010, dated 2015).
# Counter-ions that a name gives are not always drawn. Like-named read-outs stand apart in the source and are kept apart here.
# Legend:
# DU4475 cells = assay: Cell-based assay: anti-proliferative activity, Cell Counting Kit-8, 72 hours (DU4475)
# A549 cells = assay: Cell-based assay: anti-proliferative activity, Cell Counting Kit-8, 72 hours (A549); details: 72 hours
# Summary of the method: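 Cell Counting Kit-8 read-out of A549 growth after 72 hours of inhibitor exposure, cells plated in 96-well format. Values reported as IC50.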
# MELK = MELK (Homo sapiens, UniProt Q14680); assay: Kinase assay: MELK activity, phosphorylation of FITC-labeled histone H3 peptide measured by IMAP fluorescence polarization; format: biochemical; details: read-out: IC50 (μM) (kinase assay)
# Chain of MELK (Q14680 whole entry, looked up): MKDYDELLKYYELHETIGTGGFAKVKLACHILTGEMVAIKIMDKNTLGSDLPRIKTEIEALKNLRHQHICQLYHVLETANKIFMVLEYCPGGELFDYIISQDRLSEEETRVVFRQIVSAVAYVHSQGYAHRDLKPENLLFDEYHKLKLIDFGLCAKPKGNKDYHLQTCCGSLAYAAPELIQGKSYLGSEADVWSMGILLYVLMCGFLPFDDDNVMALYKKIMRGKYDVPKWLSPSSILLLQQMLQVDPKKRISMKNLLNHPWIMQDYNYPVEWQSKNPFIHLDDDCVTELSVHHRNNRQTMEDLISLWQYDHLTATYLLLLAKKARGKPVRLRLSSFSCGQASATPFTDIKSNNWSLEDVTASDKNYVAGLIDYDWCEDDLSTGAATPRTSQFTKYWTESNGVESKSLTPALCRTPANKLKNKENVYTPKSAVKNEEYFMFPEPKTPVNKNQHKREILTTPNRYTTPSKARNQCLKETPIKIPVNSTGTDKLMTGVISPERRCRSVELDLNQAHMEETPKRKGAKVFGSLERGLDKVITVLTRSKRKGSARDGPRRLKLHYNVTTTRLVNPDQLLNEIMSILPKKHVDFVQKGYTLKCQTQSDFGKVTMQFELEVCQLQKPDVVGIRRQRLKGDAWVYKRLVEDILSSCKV
# Summary of the method: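 Compounds, serially diluted from 12.5 mM DMSO stocks to 1% final DMSO, were tested with FITC-labeled histone H3 peptide as substrate. The reaction was stopped with progressive binding solution. Fluorescence polarization was read after 0.5 hour at room temperature.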
# HT-1197 cells = assay: Cell-based assay: anti-proliferative activity, Cell Counting Kit-8, 72 hours (HT-1197, negative control without MELK expression); details: HT1197 cells (negative control), 72 hours
# Summary of the method: (§1)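 Anti-MELK western blot on crude lysates → MELK status per line. Cells plated 96-well, compound exposure, CCK-8 readout at 72 h; IC50 calculated.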
# T47D cells = assay: Cell-based assay: anti-proliferative activity, Cell Counting Kit-8, 72 hours (T47D)
# Summary of the method: as §1
SMILES,"IC50 (DU4475 cells; Homo sapiens, DU-4475, 72 h)","IC50 (A549 cells; Homo sapiens, A549, 72 h)",IC50 (MELK),"IC50 (HT-1197 cells; Homo sapiens, HT1197, 72 h)","IC50 (T47D cells; Homo sapiens, T47D, 72 h)",IC50 (DU4475 cells; hydrochloride),IC50 (A549 cells; hydrochloride),IC50 (MELK; hydrochloride),IC50 (HT-1197 cells; hydrochloride),"IC50 (T47D cells; 72 hours, hydrochloride)"
"O=C(c1cnc2ccc(-c3cc(F)c(O)c(Cl)c3)cc2c1N[C@H]1C[C@H]2CC[C@@H](C1)N2)C1CC1 [Example 621, (4-((1R,3r,5S)-8-azabicyclo[3.2.1]octan-3-ylamino)-6-(3-chloro-5-fluoro-4-hydroxyphenyl)quinolin-3-yl)(cyclopropyl)methanone]",0.11 µM,0.91 µM,0.01 µM,3.9 µM,0.24 µM,–,–,–,–,–
CN[C@H]1CC[C@H](Nc2c(C(C)=O)cnc3ccc(-c4cc(Cl)c(O)c(OC)c4)cc23)CC1 [Example 542],0.069 µM,0.1 µM,0.0043 µM,1.7 µM,0.078 µM,–,–,–,–,–
"COc1cc(-c2ccc3ncc(C(=O)C4CC4)c(Nc4cnn(C5CCNCC5)c4)c3c2)cc(Cl)c1O [Example 512, (6-(3-chloro-4-hydroxy-5-methoxyphenyl)-4-(1-(piperidin-4-yl)-1H-pyrazol-4-ylamino)quinolin-3-yl)(cyclopropyl)methanone]",0.31 µM,0.3 µM,0.0022 µM,2.9 µM,0.41 µM,–,–,–,–,–
"CCCC(=O)c1cnc2ccc(-c3cc(Cl)c(O)c(Cl)c3)cc2c1N[C@H]1CC[C@H](CN(C)C)CC1 [Example 605, 1-{6-(3,5-Dichloro-4-hydroxyphenyl)-4-[trans-4-((dimethylamino)methyl)cylohexylamino]quinolin-3-yl}butan-1-one]",0.051 µM,0.13 µM,0.002 µM,1.1 µM,0.095 µM,–,–,–,–,–
"COC1CCN(C[C@H]2CC[C@H](Nc3c(C(=O)C4CC4)cnc4ccc(-c5cc(F)c(O)c(Cl)c5)cc34)CC2)C1 (stereo partly drawn) [Example 627, (6-(3-chloro-5-fluoro-4-hydroxyphenyl)-4-((trans-4-((3-methoxypyrrolidin-1-yl)methyl)cyclohexyl)amino)quinolin-3-yl)(cyclopropyl)methanone]",0.083 µM,0.11 µM,0.024 µM,0.55 µM,0.15 µM,–,–,–,–,–
"COc1cc(-c2ccc3ncc(C(=O)C4CC4)c(Nc4ccc(N)nc4)c3c2)cc(Cl)c1O [Example 589, (4-(6-aminopyridin-3-ylamino)-6-(3-chloro-4-hydroxy-5-methoxyphenyl)quinolin-3-yl)(cyclopropyl)methanone]",0.21 µM,0.18 µM,0.011 µM,1.4 µM,0.61 µM,–,–,–,–,–
"NC1CCN(c2ncc(Nc3c(C(=O)C4CC4)cnc4ccc(-c5cc(Cl)c(O)c(Cl)c5)cc34)cn2)C1 (stereo not shown) [Example 574, (4-(2-(3-aminopyrrolidin-1-yl)pyrimidin-5-ylamino)-6-(3,5-dichloro-4-hydroxyphenyl)quinolin-3-yl)(cyclopropyl)methanone]",0.021 µM,0.087 µM,0.0018 µM,1.4 µM,0.031 µM,–,–,–,–,–
"COc1cc(-c2ccc3ncc(C(=O)C4CC4)c(Nc4ccc(CCN(C)C)cc4)c3c2)cc(Cl)c1O [Example 612, (6-(3-chloro-4-hydroxy-5-methoxyphenyl)-4-(4-(2-(dimethylamino)ethyl)phenylamino)quinolin-3-yl)(cyclopropyl)methanone]",0.4 µM,0.72 µM,0.0055 µM,4.7 µM,0.84 µM,–,–,–,–,–
"CN1CCC(n2cc(Nc3c(C(=O)C4CC4)cnc4ccc(-c5cc(Cl)c(O)c(Cl)c5)cc34)cn2)CC1 [Example 593, Cyclopropyl(6-(3,5-dichloro-4-hydroxyphenyl)-4-(1-(1-methylpiperidin-4-yl)-1H-pyrazol-4-ylamino)quinolin-3-yl)methanone]",0.044 µM,0.094 µM,0.0013 µM,4.3 µM,0.32 µM,–,–,–,–,–
"NC1CCCN(c2ccc(Nc3c(C(=O)C4CC4)cnc4ccc(-c5cc(F)c(O)c(Cl)c5)cc34)cn2)C1 (stereo not shown) [Example 562, (4-(6-(3-aminopiperidin-1-yl)pyridin-3-ylamino)-6-(3-chloro-5-fluoro-4-hydroxyphenyl)quinolin-3-yl)(cyclopropyl)methanone hydrochloride]",–,–,–,–,–,0.0089 µM,0.012 µM,0.0017 µM,0.19 µM,0.0064 µM
"CC(=O)c1cnc2ccc(-c3cc(Cl)c(O)c(Cl)c3)cc2c1Nc1ccc(C(N)=O)cc1 [Example 545, 4-(3-acetyl-6-(3,5-dichloro-4-hydroxyphenyl)quinolin-4-ylamino)benzamide]",0.56 µM,3.9 µM,0.019 µM,16 µM,0.62 µM,–,–,–,–,–
CN[C@H]1CC[C@H](Nc2c(C(C)=O)cnc3ccc(-c4cc(Cl)c(O)c(Cl)c4)cc23)CC1 [Example 558],0.043 µM,0.32 µM,0.0025 µM,10 µM,0.094 µM,–,–,–,–,–
"CC(C)(N)c1ccc(Nc2c(C(=O)C3CC3)cnc3ccc(-c4cc(Cl)c(O)c(Cl)c4)cc23)cc1 [Example 601, {4-[4-(2-Aminopropan-2-yl)phenylamino]-6-(3,5-dichloro-4-hydroxyphenyl)quinolin-3-yl}(cyclopropyl)methanone hydrochloride]",0.023 µM,0.047 µM,–,0.42 µM,0.09 µM,–,–,0.0014 µM,–,–
"Nc1ccc(Nc2c(C(=O)C3CC3)cnc3ccc(-c4cc(F)c(O)c(Cl)c4)cc23)cn1 [Example 591, (4-(6-aminopyridin-3-ylamino)-6-(3-chloro-5-fluoro-4-hydroxyphenyl)quinolin-3-yl)(cyclopropyl)methanone]",0.12 µM,0.36 µM,0.032 µM,1.4 µM,0.26 µM,–,–,–,–,–
"NC1CCCN(c2ncc(Nc3c(C(=O)C4CC4)cnc4ccc(-c5cc(Cl)c(O)c(Cl)c5)cc34)cn2)C1 (stereo not shown) [Example 628, (4-(2-(3-aminopiperidin-1-yl)pyrimidin-5-ylamino)-6-(3,5-dichloro-4-hydroxyphenyl)quinolin-3-yl)(cyclopropyl)methanone]",0.0056 µM,0.019 µM,0.0015 µM,0.33 µM,0.0069 µM,–,–,–,–,–
"O=C(c1cnc2ccc(-c3cc(Cl)c(O)c(Cl)c3)cc2c1N[C@H]1CC[C@H](CN2CCCC2)CC1)C1CC1 [Example 584, cyclopropyl(6-(3,5-dichloro-4-hydroxyphenyl)-4-((trans-4-(pyrrolidin-1-ylmethyl)cyclohexyl)amino)quinolin-3-yl)methanone]",0.053 µM,0.071 µM,0.0016 µM,0.86 µM,0.13 µM,–,–,–,–,–
"O=C(c1cnc2ccc(-c3cc(F)c(O)c(Cl)c3)cc2c1N[C@H]1CC[C@H](CN2CCCC2)CC1)C1CC1 [Example 587, (6-(3-chloro-5-fluoro-4-hydroxyphenyl)-4-((trans-4-(pyrrolidin-1-ylmethyl)cyclohexyl)amino)quinolin-3-yl)(cyclopropyl)methanone]",0.065 µM,0.084 µM,0.0032 µM,0.55 µM,0.11 µM,–,–,–,–,–
"COc1cc(-c2ccc3ncc(C(C)=O)c(Nc4cnc(N5CCNCC5)nc4)c3c2)cc(Cl)c1O [Example 616, 1-(6-(3-chloro-4-hydroxy-5-methoxyphenyl)-4-(2-(piperazin-1-yl)pyrimidin-5-ylamino)quinolin-3-yl)ethanone]",0.5 µM,0.66 µM,0.0044 µM,1.8 µM,0.22 µM,–,–,–,–,–
"NC1CCN(c2ccc(Nc3c(C(=O)C4CC4)cnc4ccc(-c5cc(Cl)c(O)c(Cl)c5)cc34)cn2)CC1 [Example 548, (4-(6-(4-aminopiperidin-1-yl)pyridin-3-ylamino)-6-(3,5-dichloro-4-hydroxyphenyl)quinolin-3-yl)(cyclopropyl)methanone]",0.099 µM,0.45 µM,0.002 µM,3.4 µM,0.097 µM,–,–,–,–,–
"O=C(c1cnc2ccc(-c3cc(F)c(O)c(Cl)c3)cc2c1Nc1ccc(NC2CCCNC2)nc1)C1CC1 (stereo not shown) [Example 611, (6-(3-chloro-5-fluoro-4-hydroxyphenyl)-4-(6-(piperidin-3-ylamino)pyridin-3-ylamino)quinolin-3-yl)(cyclopropyl)methanone]",0.39 µM,0.57 µM,0.0023 µM,10 µM,0.13 µM,–,–,–,–,–
"CN(CC#N)C[C@H]1CC[C@@H](Nc2c(C(=O)C3CC3)cnc3ccc(-c4cc(F)c(O)c(Cl)c4)cc23)CC1 [Example 524, 2-((((1R,4R)-4-(6-(3-Chloro-5-fluoro-4-hydroxyphenyl)-3-(cyclopropanecarbonyl)quinolin-4-ylamino)cyclohexyl)methyl)(methyl)amino)acetonitrile]",0.1 µM,0.39 µM,0.01 µM,1.7 µM,0.2 µM,–,–,–,–,–
"COc1cc(-c2ccc3ncc(C(=O)C4CC4)c(Nc4ccc(N5CCCC(N)C5)nc4)c3c2)cc(Cl)c1O (stereo not shown) [Example 554, (4-(6-(3-aminopiperidin-1-yl)pyridin-3-ylamino)-6-(3-chloro-4-hydroxy-5-methoxyphenyl)quinolin-3-yl)(cyclopropyl)methanone]",0.025 µM,0.08 µM,0.0031 µM,1.9 µM,0.068 µM,–,–,–,–,–
"CCCC(=O)c1cnc2ccc(-c3cc(Cl)c(O)c(Cl)c3)cc2c1N[C@H]1CC[C@H](N)CC1 [Example 535, 1-(4-((trans-4-aminocyclohexyl)amino)-6-(3,5-dichloro-4-hydroxyphenyl)quinolin-3-yl)butan-1-one]",0.025 µM,0.24 µM,0.0024 µM,3.3 µM,0.077 µM,–,–,–,–,–
